A short description of data set [1]: Relative potency is ratio of IC50 of theophylline / IC50 was determined. It counts as functional.
For data set [2], the species on record is Cavia porcellus. Nature of the data set: Bronchodilator activity against acetylcholine-induced spasm in guinea pig. It counts as functional. Conditions: read-out: ID50 (the source's name).
For data set [3], the species on record is Homo sapiens. Nature of the data set: compound was tested for Bronchodilator activity against isolated human bronchus contracted by carbachol. It counts as functional.
The species named for data set [4] is Cavia porcellus. Briefly: Bronchodilator activity against serotonin-induced spasm in guinea pig. It is filed as functional. Conditions: read-out: ID50 (the source's name).
The species entered for data set [5] is Cavia porcellus. Briefly: Bronchodilator activity against histamine-induced spasm in guinea pig. It is filed as functional. As to conditions: read-out: ID50 (the source's name).
Data set [6] has as its system Cavia porcellus. Nature of the data set: Compound was tested for Bronchodilator activity against serotonin-induced spasm in guinea pig by Konzett-Rossler test; dose administered by intraduodenal route. It is filed as functional. Conditions: read-out: ID50 (the source's name).
For data set [7], the system named is Cavia porcellus. Briefly: Compound was tested for Bronchodilator activity against histamine-induced spasm in guinea pig by Konzett-Rossler test; dose administered by intraduodenal route. As to conditions: read-out: ID50 (the source's name). It counts as functional.
Data set [8] deals with Cavia porcellus. Nature of the data set: Compound was tested for Bronchodilator activity against acetylcholine-induced spasm in guinea pig by Konzett-Rossler test; dose administered by intraduodenal route. It is filed as functional. Conditions: read-out: ID50 (the source's name).
For data set [9], the species on record is Cavia porcellus. Briefly: Compound was tested for Bronchodilator activity against acetylcholine-induced spasm in guinea pig by Konzett-Rossler test. It is filed as organism-based. Conditions: in vivo.
A short description of data set [10]: Relative potency calculated from ratio of IC50 of theophylline / IC50 was determined. It counts as functional.
Data set [11] relates to Cavia porcellus. Nature of the data set: Compound was tested for Bronchodilator activity against serotonin-induced spasm in guinea pig by Konzett-Rossler test; dose administered by intraduodenal route. It counts as functional. Conditions: read-out: ID50 (the source's name).
For data set [12], the system named is Cavia porcellus. Nature of the data set: Compound was tested for Bronchodilator activity against acetylcholine-induced spasm in guinea pig by Konzett-Rossler tes; dose administered by intraduodenal route. As to conditions: read-out: ID50 (the source's name). It is filed as functional.
Data set [13] is filed under the species Cavia porcellus. Nature of the data set: […] activity was evaluated by inhibition of histamine induced spasm in isolated guinea pig ileum. It counts as functional.
The species named for data set [14] is Cavia porcellus. Nature of the data set: […] activity was evaluated by inhibition of acetylcholine induced spasm in isolated guinea pig ileum. It counts as functional.
A short description of data set [15]: Ratio of pA2 to pD2 was determined on isolated guinea pig trachea. It counts as functional.
For data set [16], the species on record is Cavia porcellus. Nature of the data set: […] activity was evaluated by inhibition of BaCl2 induced spasm in isolated guinea pig ileum. It counts as functional.
The species named for data set [17] is Cavia porcellus. Briefly: […] activity was evaluated by inhibition of serotonin induced spasm in isolated guinea pig ileum. It counts as functional.
The species entered for data set [18] is Cavia porcellus. Briefly: Compound was tested for Anticholenergic activity on isolated guinea pig trachea contracted by carbachol. It is filed as functional. Conditions: for Kb: read-out: pA2 (converted).
The species entered for data set [19] is Cavia porcellus. Briefly: […] activity was evaluated by inhibition of nicotinate induced spasm in isolated guinea pig ileum. It counts as functional.
The species named for data set [20] is Homo sapiens. Nature of the data set: Compound was tested for Bronchodilator activity against isolated human bronchus contracted by carbachol. It is filed as functional.
[21] abbreviates: Homo sapiens, Bronchus, read-out: IC50.

The structures appear in SMILES notation.

`CCc1c(C)nc2n(c1=O)CCC(C)C2` (stereo not drawn): in [1], the Relative potency worked out at 2.02. The figures for the ED50 in the data set listed under Cavia porcellus [2], in the data set filed under Cavia porcellus [4] and in the data set listed under Cavia porcellus [5] were 28.2 µmol/kg, 18.4 µmol/kg and 23.2 µmol/kg, respectively. For the same compound, the IC50 in the data set filed under Homo sapiens [3] (setting [21]) worked out at 74.6 µM.
On to `CC1CCn2c(nc3c(c2=O)CCC3)C1` (stereo not drawn), for which the Relative potency in data set [1] was determined as 1.07. Moreover, the ED50 in the data set filed under Cavia porcellus [2] stood at 56.4 µmol/kg; in the data set listed under Cavia porcellus [4], 22.5 µmol/kg; in the data set listed under Cavia porcellus [5] it was 18.9 µmol/kg. This compound also had an IC50 in the data set filed under Homo sapiens [3] of 141 uM l-1.
Regarding `CCOC(=O)c1ccc2c(=O)n3c(nc2c1)CCCCC3`, the ED50 worked out at 10 µmol/kg in the data set with Cavia porcellus [6], 32 µmol/kg in the data set on Cavia porcellus [7] and 24.5 µmol/kg in the data set with Cavia porcellus [8].
Consider `O=c1nc2n(c3c1CCCCC3)CCC2`, for which the ID50 in the data set listed under Cavia porcellus [9] was greater than 32 µM/kg. The ED50 in the data set listed under Cavia porcellus [4] and in the data set filed under Cavia porcellus [5] was greater than 32 µmol/kg throughout.
With `O=c1c2c(nc3n1CCCCC3)CCCC2`, the Relative potency in data set [10] was 28.
In the case of `Cc1cccc2c(=O)n3c(nc12)CCCCC3`, the ED50 in the data set with Cavia porcellus [7], in the data set on Cavia porcellus [8] and in the data set on Cavia porcellus [11] was greater than 32 µmol/kg in each case.
As to `CC1CCCCn2c1nc1c(c2=O)CCCC1` (stereo not drawn), the ED50 with Cavia porcellus [7], in the data set on Cavia porcellus [8] and with Cavia porcellus [11] was greater than 320 µmol/kg in each case.
With `CC1CCCCc2nc3c(c(=O)n21)CCCC3` (stereo not drawn), the ED50 with Cavia porcellus [12], in the data set with Cavia porcellus [7] and with Cavia porcellus [11] was greater than 320 µmol/kg each time.
`COC(=O)c1ccc2nc3n(c(=O)c2c1)CCCCC3`: the ED50 in the data set on Cavia porcellus [7] is 32 µmol/kg; with Cavia porcellus [8], greater than 32 µmol/kg; in the data set with Cavia porcellus [11], 32 µmol/kg.
As to `Cc1cccn2c(=O)c3c(nc12)CCCC3`, in [1], the Relative potency is 2.26. Also, the ED50 in the data set listed under Cavia porcellus [2] stood at 15.7 µmol/kg; in the data set filed under Cavia porcellus [4], 15.6 µmol/kg; in the data set filed under Cavia porcellus [5], 7 µmol/kg. Also, the IC50 in the data set listed under Homo sapiens [3] (setting [21]) was determined as 66.6 µM.
For the compound `Cl.O=c1c2c(nc3n1CCCCC3)CCCC2`, the IC50 in the data set listed under Cavia porcellus [13] is greater than 100 µM; in the data set filed under Cavia porcellus [14] it was 5.01 µM; in the data set filed under Cavia porcellus [16] it was 123 uM l-1; in the data set filed under Cavia porcellus [17], 752 uM l-1; in the data set listed under Cavia porcellus [19] it was 49.5 µM; in the data set filed under Homo sapiens [20], 5.4 µM. Further, the Ratio in data set [15] was determined as 1.06. The compound also registered a pD2 in the data set listed under Cavia porcellus [18] of 5.39. In addition, the Kb in the data set filed under Cavia porcellus [18] was 1.91 µM.
Take `O=c1c2c(nc3n1CCCCC3)CCC2`: the Relative potency in [1] came to 9.93. In addition, the IC50 in the data set filed under Cavia porcellus [13] was greater than 100 µM; in the data set filed under Cavia porcellus [14], 2.53 µM; in the data set listed under Cavia porcellus [16], 113 uM l-1; in the data set listed under Cavia porcellus [17], 112 uM l-1; in the data set filed under Cavia porcellus [19] it was 75 µM; in the data set listed under Homo sapiens [20] it was 15.2 µM. Moreover, the Ratio in data set [15] came out at 1.23. In addition, the pD2 in the data set listed under Cavia porcellus [18] came out at 5.37. The Kb in the data set listed under Cavia porcellus [18] was 0.229 µM.
